Laboratory results from ChEMBL document CHEMBL4414679, “Discovery of 4,6-pyrimidinediamine derivatives as novel dual EGFR/FGFR inhibitors aimed EGFR/FGFR1-positive NSCLC” (Eur J Med Chem, 2020).
Calls of active or inactive are those of the source. The rule behind the calls is not given here.

How the values were obtained:
HCC827 [1] = test: Antiproliferative activity against human HCC827 cells assessed as inhibition of cell growth at 10 uM incubated for 48 hrs by MTT assay relative to control; assay type: functional; conditions: HCC827, 48 h
PC-9 [2] = test: Antiproliferative activity against human PC9 cells incubated for 48 hrs by MTT assay; assay type: functional, cell-based; conditions: PC-9, 48 h
NCI-H520 [3] = test: Antiproliferative activity against human NCI-H520 cells incubated for 48 hrs by MTT assay; assay type: functional, cell-based; conditions: NCI-H520, 48 h
HCC827 [4] = test: Antiproliferative activity against human HCC827 cells incubated for 48 hrs by MTT assay; assay type: functional, cell-based; conditions: HCC827, 48 h
NCI-H520 [5] = test: Antiproliferative activity against human NCI-H520 cells assessed as inhibition of cell growth at 10 uM incubated for 48 hrs by MTT assay relative to control; assay type: functional; conditions: NCI-H520, 48 h
NCI-H1581 [6] = test: Antiproliferative activity against human NCI-H1581 cells assessed as inhibition of cell growth at 10 uM incubated for 48 hrs by MTT assay relative to control; assay type: functional; conditions: NCI-H1581, 48 h
[7] = biological target: T1, Epidermal growth factor receptor (Homo sapiens, UniProt P00533); test: Inhibition of N-terminal GST-tagged human EGFR cytoplasmic domain (669-1210 AA) expressed in baculovirus at 10 uM using FAM-labelled peptide as substrate pre-incubated for 10 mins followed by substrate addition by mobility shift assay relative to control
T1 sequence (P00533 whole entry, the tested form may be a part): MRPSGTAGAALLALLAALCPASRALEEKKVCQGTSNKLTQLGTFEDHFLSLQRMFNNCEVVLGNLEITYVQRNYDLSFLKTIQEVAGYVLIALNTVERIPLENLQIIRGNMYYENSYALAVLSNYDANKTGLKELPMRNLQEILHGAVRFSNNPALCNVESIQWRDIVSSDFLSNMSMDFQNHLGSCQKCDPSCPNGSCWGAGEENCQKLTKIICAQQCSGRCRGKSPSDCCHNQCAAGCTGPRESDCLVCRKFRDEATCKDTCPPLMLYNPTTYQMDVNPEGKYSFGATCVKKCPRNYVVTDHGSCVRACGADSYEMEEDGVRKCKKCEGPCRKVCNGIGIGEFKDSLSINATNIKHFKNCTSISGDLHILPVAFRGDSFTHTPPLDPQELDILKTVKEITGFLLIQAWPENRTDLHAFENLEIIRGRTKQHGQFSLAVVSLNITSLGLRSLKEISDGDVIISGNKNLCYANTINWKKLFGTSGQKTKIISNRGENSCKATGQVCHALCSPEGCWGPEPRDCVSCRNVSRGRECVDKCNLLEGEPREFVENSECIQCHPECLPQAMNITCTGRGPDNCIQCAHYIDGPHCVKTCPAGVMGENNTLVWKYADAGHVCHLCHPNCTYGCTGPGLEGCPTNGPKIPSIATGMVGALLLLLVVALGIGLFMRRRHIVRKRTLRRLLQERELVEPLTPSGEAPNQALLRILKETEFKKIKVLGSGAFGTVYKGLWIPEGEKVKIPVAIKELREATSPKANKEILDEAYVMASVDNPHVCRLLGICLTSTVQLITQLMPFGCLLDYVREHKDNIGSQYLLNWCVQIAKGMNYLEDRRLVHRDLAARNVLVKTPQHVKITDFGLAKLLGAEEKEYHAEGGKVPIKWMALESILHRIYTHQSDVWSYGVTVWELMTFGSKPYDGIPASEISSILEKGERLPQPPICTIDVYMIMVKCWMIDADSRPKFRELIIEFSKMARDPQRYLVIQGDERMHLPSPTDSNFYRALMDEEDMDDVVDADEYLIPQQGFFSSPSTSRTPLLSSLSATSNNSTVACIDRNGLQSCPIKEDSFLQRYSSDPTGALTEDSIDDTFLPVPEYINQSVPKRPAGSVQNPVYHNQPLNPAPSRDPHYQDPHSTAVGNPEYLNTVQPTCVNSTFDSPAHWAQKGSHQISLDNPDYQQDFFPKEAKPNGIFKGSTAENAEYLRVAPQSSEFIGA

NCI-H226 [8] = test: Antiproliferative activity against human NCI-H226 cells incubated for 48 hrs by MTT assay; assay type: functional, cell-based; conditions: NCI-H226, 48 h
[9] = system: Epidermal growth factor receptor (Homo sapiens), P00533 [L858R]; test: Inhibition of recombinant human EGFR L858R mutant expressed in baculovirus at 10 uM using FAM-labelled peptide as substrate pre-incubated for 10 mins followed by substrate addition by mobility shift assay relative to control
Chain of Epidermal growth factor receptor (Homo sapiens), P00533 [L858R] (P00533 whole entry L858R): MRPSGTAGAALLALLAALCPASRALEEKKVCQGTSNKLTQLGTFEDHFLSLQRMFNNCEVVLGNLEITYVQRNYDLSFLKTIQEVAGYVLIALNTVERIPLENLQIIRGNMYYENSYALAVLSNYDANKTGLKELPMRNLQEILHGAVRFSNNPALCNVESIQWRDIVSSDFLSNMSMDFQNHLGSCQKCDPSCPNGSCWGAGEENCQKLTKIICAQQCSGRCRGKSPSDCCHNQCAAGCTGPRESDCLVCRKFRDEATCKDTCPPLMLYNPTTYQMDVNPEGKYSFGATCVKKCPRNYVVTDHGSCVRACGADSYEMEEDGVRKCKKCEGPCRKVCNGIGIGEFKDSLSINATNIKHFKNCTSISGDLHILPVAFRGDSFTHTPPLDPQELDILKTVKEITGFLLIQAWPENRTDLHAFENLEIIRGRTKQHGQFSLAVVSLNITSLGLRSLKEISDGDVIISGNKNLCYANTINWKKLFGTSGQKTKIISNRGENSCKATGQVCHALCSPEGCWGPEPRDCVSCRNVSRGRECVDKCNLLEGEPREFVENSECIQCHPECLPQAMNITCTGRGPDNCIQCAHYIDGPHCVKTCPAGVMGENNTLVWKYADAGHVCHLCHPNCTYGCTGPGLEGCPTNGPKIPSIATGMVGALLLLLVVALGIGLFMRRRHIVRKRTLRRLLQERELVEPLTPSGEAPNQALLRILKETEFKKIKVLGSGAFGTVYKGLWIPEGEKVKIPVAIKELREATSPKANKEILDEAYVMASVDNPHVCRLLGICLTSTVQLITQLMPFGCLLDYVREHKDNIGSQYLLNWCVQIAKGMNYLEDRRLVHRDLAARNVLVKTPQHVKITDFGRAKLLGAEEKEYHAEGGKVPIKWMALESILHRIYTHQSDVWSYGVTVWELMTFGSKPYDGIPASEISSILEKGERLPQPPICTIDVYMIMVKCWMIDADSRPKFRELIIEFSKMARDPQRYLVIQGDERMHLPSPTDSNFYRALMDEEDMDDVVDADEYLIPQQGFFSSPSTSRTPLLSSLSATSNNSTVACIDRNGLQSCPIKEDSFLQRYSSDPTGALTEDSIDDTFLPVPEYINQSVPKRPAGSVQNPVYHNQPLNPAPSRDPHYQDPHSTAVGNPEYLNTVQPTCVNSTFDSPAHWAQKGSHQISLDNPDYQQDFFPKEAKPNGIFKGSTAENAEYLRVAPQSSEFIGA

[10] = biological target: T1, Epidermal growth factor receptor; test: Inhibition of N-terminal GST-tagged human EGFR (d746-750AA) expressed in baculovirus at 10 uM using FAM-labelled peptide as substrate pre-incubated for 10 mins followed by substrate addition by mobility shift assay relative to control
PC-9 [11] = test: Antiproliferative activity against human PC9 cells assessed as inhibition of cell growth at 10 uM incubated for 48 hrs by MTT assay relative to control; assay type: functional; conditions: PC-9, 48 h
NCI-H1581 [12] = test: Antiproliferative activity against human NCI-H1581 cells incubated for 48 hrs by MTT assay; assay type: functional, cell-based; conditions: NCI-H1581, 48 h
NCI-H226 [13] = test: Antiproliferative activity against human NCI-H226 cells assessed as inhibition of cell growth at 10 uM incubated for 48 hrs by MTT assay relative to control; assay type: functional; conditions: NCI-H226, 48 h
[14] = biological target: T2, Fibroblast growth factor receptor 1 (Homo sapiens, UniProt P11362); test: Inhibition of N-terminal GST-tagged human FGFR1 cytoplasmic domain (398-822 AA) expressed in baculovirus at 10 uM using FAM-labelled peptide as substrate pre-incubated for 10 mins followed by substrate addition by mobility shift assay relative to control
Target sequence in this assay (P11362 22-822 limits assumed): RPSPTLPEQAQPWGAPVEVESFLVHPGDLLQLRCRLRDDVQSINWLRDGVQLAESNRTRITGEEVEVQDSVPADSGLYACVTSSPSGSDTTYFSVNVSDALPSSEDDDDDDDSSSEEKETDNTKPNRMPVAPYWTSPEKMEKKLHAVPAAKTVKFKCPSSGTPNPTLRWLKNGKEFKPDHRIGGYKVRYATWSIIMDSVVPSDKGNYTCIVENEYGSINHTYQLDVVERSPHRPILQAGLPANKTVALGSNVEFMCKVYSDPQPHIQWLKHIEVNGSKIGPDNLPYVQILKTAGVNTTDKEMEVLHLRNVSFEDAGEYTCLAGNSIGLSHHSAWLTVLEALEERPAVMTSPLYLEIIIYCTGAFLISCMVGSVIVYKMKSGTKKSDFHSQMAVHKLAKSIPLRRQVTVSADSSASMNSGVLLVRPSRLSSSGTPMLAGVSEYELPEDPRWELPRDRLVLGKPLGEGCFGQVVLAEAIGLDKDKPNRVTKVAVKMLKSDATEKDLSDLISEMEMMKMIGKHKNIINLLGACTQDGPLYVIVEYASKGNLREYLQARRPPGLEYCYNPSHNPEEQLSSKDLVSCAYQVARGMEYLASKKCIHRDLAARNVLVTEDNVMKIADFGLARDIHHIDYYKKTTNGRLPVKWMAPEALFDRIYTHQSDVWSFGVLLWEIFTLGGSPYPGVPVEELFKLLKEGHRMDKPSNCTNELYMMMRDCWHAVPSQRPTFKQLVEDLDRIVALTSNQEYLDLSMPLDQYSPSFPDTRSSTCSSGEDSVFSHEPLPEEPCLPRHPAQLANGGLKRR

[15] = biological target: T1, Epidermal growth factor receptor; test: Inhibition of N-terminal GST-tagged human EGFR (d746-750AA) expressed in baculovirus using FAM-labelled peptide as substrate pre-incubated for 10 mins followed by substrate addition by mobility shift assay
[16] = biological target: T2, Fibroblast growth factor receptor 1; test: Inhibition of N-terminal GST-tagged human FGFR1 cytoplasmic domain (398-822 AA) expressed in baculovirus using FAM-labelled peptide as substrate pre-incubated for 10 mins followed by substrate addition by mobility shift assay
[17] = biological target: Epidermal growth factor receptor (Homo sapiens, UniProt P00533, L858R); test: Inhibition of recombinant human EGFR L858R mutant expressed in baculovirus using FAM-labelled peptide as substrate pre-incubated for 10 mins followed by substrate addition by mobility shift assay
Chain of Epidermal growth factor receptor (Homo sapiens, UniProt P00533, L858R) (P00533 25-1210 L858R limits assumed): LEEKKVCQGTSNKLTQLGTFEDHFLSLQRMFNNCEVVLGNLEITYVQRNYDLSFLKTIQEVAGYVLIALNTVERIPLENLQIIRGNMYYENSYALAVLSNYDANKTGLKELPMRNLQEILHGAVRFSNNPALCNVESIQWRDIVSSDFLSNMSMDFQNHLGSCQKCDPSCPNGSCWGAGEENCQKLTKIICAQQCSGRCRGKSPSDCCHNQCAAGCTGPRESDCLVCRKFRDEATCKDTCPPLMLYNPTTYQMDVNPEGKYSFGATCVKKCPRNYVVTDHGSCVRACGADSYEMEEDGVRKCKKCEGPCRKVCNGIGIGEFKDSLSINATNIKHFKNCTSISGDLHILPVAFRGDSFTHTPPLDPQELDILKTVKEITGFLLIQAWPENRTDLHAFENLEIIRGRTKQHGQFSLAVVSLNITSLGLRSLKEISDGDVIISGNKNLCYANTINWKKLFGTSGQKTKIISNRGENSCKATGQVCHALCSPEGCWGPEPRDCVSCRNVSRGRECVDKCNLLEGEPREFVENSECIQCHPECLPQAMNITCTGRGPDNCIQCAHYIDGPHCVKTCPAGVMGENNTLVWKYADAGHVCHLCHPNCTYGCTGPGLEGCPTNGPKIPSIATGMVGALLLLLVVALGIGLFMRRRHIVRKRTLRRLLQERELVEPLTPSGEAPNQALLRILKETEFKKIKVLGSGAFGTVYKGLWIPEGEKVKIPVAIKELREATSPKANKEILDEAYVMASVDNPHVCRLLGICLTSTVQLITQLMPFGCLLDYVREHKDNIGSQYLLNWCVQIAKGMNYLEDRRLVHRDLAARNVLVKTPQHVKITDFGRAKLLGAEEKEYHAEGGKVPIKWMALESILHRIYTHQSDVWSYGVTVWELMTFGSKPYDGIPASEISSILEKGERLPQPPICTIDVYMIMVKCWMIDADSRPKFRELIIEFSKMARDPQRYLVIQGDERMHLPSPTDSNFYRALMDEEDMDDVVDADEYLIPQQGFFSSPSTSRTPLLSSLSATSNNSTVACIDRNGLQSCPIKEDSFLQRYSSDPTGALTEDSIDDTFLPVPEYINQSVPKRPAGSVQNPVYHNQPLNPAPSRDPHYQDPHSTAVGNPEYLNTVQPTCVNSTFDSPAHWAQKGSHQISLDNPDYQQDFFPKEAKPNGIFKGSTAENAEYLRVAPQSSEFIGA

[18] = biological target: T1, Epidermal growth factor receptor; test: Inhibition of N-terminal GST-tagged human EGFR cytoplasmic domain (669-1210 AA) expressed in baculovirus using FAM-labelled peptide as substrate pre-incubated for 10 mins followed by substrate addition by mobility shift assay
[19] = biological target: T2, Fibroblast growth factor receptor 1; conditions: 10 uM
Target sequence in this assay (P11362 22-822 limits assumed): as the sequence (P11362 22-822 limits assumed) above
Description: Inhibition of FGFR in serum-starved human H520 cells assessed as reduction in FGFR-induced AKT phosphorylation at 10 uM incubated for 1 hr by Western blot analysis

[20] = biological target: T2, Fibroblast growth factor receptor 1; conditions: 10 uM; remark: listed apart in the source
Target sequence in this assay (P11362 22-822 limits assumed): as above
Description: Inhibition of FGF-induced FGFR1 phosphorylation in serum-starved human H520 cells at 10 uM incubated for 1 hr by Western blot analysis

Row | SMILES | inhibition at 10 µM (HCC827 [1]) [%] | IC50 (PC-9 [2]) [µM] | IC50 (NCI-H520 [3]) [µM] | IC50 (HCC827 [4]) [µM] | inhibition at 10 µM (NCI-H520 [5]) [%] | inhibition at 10 µM (NCI-H1581 [6]) [%] | inhibition [7] [%] | IC50 (NCI-H226 [8]) [µM] | inhibition [9] [%] | inhibition [10] [%] | inhibition at 10 µM (PC-9 [11]) [%] | IC50 (NCI-H1581 [12]) [µM] | inhibition at 10 µM (NCI-H226 [13]) [%] | inhibition [14] [%] | IC50 [15] [µM] | IC50 [16] [µM] | IC50 [17] [µM] | IC50 [18] [µM] | inhibition [19] | inhibition [20]
1 | COc1cc(NC(=O)Nc2cc(Nc3cc(C(F)(F)F)ccc3OC)ncn2)cc(OC)c1 | 59.7 | 6.22 | 4.45 | 15.1 | 63 | 67 | 74.6 | 14.6 | 73.1 | 54.2 | 81.1 | 7.35 | 60 | 11 |  |  |  |  |  | 
2 | COc1cc(NC(=O)Nc2cc(Nc3cc(I)ccc3OC)ncn2)cc(OC)c1 | 71 | 3.54 | 9.87 | > 20 | 55 | 59 | 58.7 | 19.4 | 74 | 60.2 | 91 | 8.86 | 56.7 | -2.1 |  |  |  |  |  | 
3 | COc1cc(Nc2cc(NC(=O)Nc3c(Cl)cccc3Cl)ncn2)cc(OC)c1 | 73.7 | 3.18 | 10.5 | 13.3 | 55.5 | 68 | 87.3 | 16.9 | 79.4 | 84.2 | 90 | 5.32 | 60 | 74.2 | 0.332 | 1.1 | 0.49 | 0.315 |  | 
4 | Cc1cc(F)cc(Nc2cc(NC(=O)Nc3c(Cl)cccc3Cl)ncn2)c1 | 49.1 | 2.79 | 3.78 | 18.6 | 60.5 | 65 | 79.2 | 2.96 | 91.9 | 89.7 | 80 | 4.78 | 78.1 | 70.3 | 0.253 | 1.22 | 0.174 | 0.528 |  | 
5 | COc1cc(NC(=O)Nc2cc(Nc3cc(F)ccc3OC)ncn2)cc(OC)c1 | 59 |  |  |  | 38 | 42.1 | 31.1 |  | 54.6 | 35.4 | 59.5 |  | 37.7 | -1.6 |  |  |  |  |  | 
6 | COc1cc(NC(=O)Nc2cc(Nc3cc(C)cc(F)c3)ncn2)cc(OC)c1 | 62 |  |  |  | 24.5 | 28.3 | 8 |  | 23.1 | 16.7 | 64.5 |  | 35.3 | 1.1 |  |  |  |  |  | 
7 | COc1cc(NC(=O)Nc2cc(Nc3ccc(OC)c(C)c3)ncn2)cc(OC)c1 | 48.3 |  |  |  | 13.5 | 19.7 | 74.9 |  | 46.5 | 54.9 | 62 |  | 39.7 | 36.6 |  |  |  |  |  | 
8 | COc1cc(NC(=O)Nc2cc(Nc3cc(OC)ccc3OC)ncn2)cc(OC)c1 | 63 | 5.92 | 7.52 | 3.24 | 34 | 40.7 | 63.3 | 7.39 | 60 | 65.7 | 59.5 | 8.39 | 41.1 | 3.4 |  |  |  |  |  | 
9 | CCc1cccc(Nc2cc(NC(=O)Nc3cc(OC)cc(OC)c3)ncn2)c1 | 52.6 |  |  |  | 23 | 27.7 | 10.1 |  | 41 | 26 | 82.1 |  | 36.7 | 1.1 |  |  |  |  |  | 
10 | COc1cc(NC(=O)Nc2cc(Nc3ccc(C)c(F)c3)ncn2)cc(OC)c1 | 72 |  |  |  | 30.6 | 38 | 31.7 |  | 64.2 | 51.5 | 77.5 |  | 39.7 | 0.1 |  |  |  |  |  | 
11 | CCN1CCN(c2ccc(Nc3cc(N(C)C(=O)Nc4c(Cl)c(OC)cc(OC)c4Cl)ncn3)cc2)CC1 [INFIGRATINIB] | 32 |  |  |  | 77.1 | 83.7 |  |  |  |  | 55.5 |  | 67.3 |  |  |  |  |  | Active | Active
12 | CC(C)(C)c1cccc(Nc2cc(NC(=O)Nc3c(Cl)cccc3Cl)ncn2)c1 | 37.3 |  |  |  | 29.6 | 64.3 | 44.7 |  | 68.4 | 57.4 | 87 |  | 36.5 | 10.7 |  |  |  |  |  | 
13 | COc1cc(NC(=O)Nc2cc(Nc3ccc(Br)cc3OC)ncn2)cc(OC)c1 | 57.7 |  |  |  | 36 | 20.1 | 12.4 |  | 36.9 | 17.9 | 83 |  | 25.7 | -0.7 |  |  |  |  |  | 
14 | COc1cc(NC(=O)Nc2cc(Nc3cc(OC)cc(OC)c3)ncn2)cc(OC)c1 | 51.3 | 3.83 | 10.8 | 4.25 | 40.5 | 40.7 | 66.2 | 8.32 | 51.7 | 56.7 | 76.5 | 7.34 | 38.3 | 10.6 |  |  |  |  |  | 
